The experiment concerns American upland cotton. The experiment can be described thus: Spray treatment of mature American upland cotton, evaluated 10, 14 and 21 days after treatment. It counts as in vivo.
Setting [1] is: 10 days after treatment, (+) EBNG = 0.13 lb/acre.
[2] abbreviates: 14 days after treatment, (+) EBNG = 0.13 lb/acre.
Setting [3] is: 21 days after treatment, (+) EBNG = 0.13 lbs/acre.

As for `CCC(NC(=N)N[N+](=O)[O-])c1ccccc1` (single isomer, unassigned; (+)) [(+) EBNG, (+)-1-(α-ethylbenzyl)-3-nitroguanidine], under setting [1], the “% Dead Leaves On Plants” value came to 8.3% and the “% Dropped Leaves” value is recorded as 90.0%. Moreover, under setting [2], the “% Dead Leaves On Plants” value is given as 5.7%, the “% Dropped Leaves” value is on record as 93.0%, the “% New Growth Leaves” value is listed as 1.0% and the “% Open Fruits” value is 96.0%. Under setting [3], the “% New Growth Leaves” value is 3.7% and the “% Open Fruits” value is listed as 98.3%.
